According to ChEMBL document CHEMBL5725343, “Amino-substituted isothiazoles” (2017):

Experiments:
[1] = biological target: Mitotic checkpoint serine/threonine-protein kinase BUB1 (Homo sapiens, UniProt O43683); assay: Bub1 Kinase Assay: Recombinant fusion proteins of GST and human CDK2 and of GST and human CycE, expressed in insect cells (Sf9) and purified by Glutathion-Sepharose affinity chromatography, were purchased from ProQinase GmbH (Freiburg, Germany). As substrate for the kinase reaction biotinylated peptide biotin-Ttds-YISPLKSPYKISEG (C-terminus in amid form) was used which can be purchased e.g. form the company JERINI peptide technologies (Berlin, Germany). For the assay 50 nl of a 100 fold concentrated solution of the test compound in DMSO was pipetted into a black low volume 384 well microtiter plate (Greiner Bio-One, Frickenhausen, Germany), 2 ul of a solution of CDK2/CycE in aqueous assay buffer [50 mM Tris/HCl pH 8.0, 10 mM MgCl2, 1.0 mM dithiothreitol, 0.1 mM sodium ortho-vanadate, 0.01% (v/v) Nonidet-P40 (Sigma)] were added and the mixture was incubated for 15 min at 22° C. to allow pre-binding of the test compounds to the enzyme before the start of the kinase reaction. Then the kinase reaction was started by the addition of 3 ul of a solution of adenosine-tri-phosphate (ATP, 16.7 uM=>final conc. in the 5 ul assay volume is 10 uM) and substrate (1.25 uM=>final conc. in the 5 ul assay volume is 0.75 uM) in assay buffer and the resulting mixture was incubated for a reaction time of 25 min at 22° C. […]
[2] = biological target: T1, Dual specificity protein kinase TTK (Homo sapiens, UniProt P33981); assay: Mps-1 Kinase Assay: N-terminally GST-tagged human full length recombinant Mps-1 kinase (purchased from Invitrogen, Karslruhe, Germany, cat. no PV4071) was used. As substrate for the kinase reaction a biotinylated peptide of the amino-acid sequence biotin-Ahx-PWDPDDADITEILG (C-terminus in amide form, purchased from Biosyntan GmbH, Berlin) was used. For the assay 50 nl of a 100-fold concentrated solution of the test compound in DMSO was pipetted into a black low volume 384 well microtiter plate (Greiner Bio-One, Frickenhausen, Germany), 2 ul of a solution of Mps-1 in assay buffer [0.1 mM sodium-ortho-vanadate, 10 mM MgCl2, 2 mM DTT, 25 mM Hepes pH 7.7, 0.05% BSA (w/v), 0.001% Pluronic F-127] were added and the mixture was incubated for 15 min at 22° C. to allow pre-binding of the test compounds to Mps-1 before the start of the kinase reaction. Then the kinase reaction was started by the addition of 3 ul of a solution of 16.7 uM adenosine-tri-phosphate (ATP, 16.7 uM=>final conc. in the 5 ul assay volume is 10 uM) and peptide substrate (1.67 uM=>final conc. in the 5 ul assay volume is 1 uM) in assay buffer and the resulting mixture was incubated for a reaction time of 60 min at 22° C. […]
T1 sequence (P33981 whole entry): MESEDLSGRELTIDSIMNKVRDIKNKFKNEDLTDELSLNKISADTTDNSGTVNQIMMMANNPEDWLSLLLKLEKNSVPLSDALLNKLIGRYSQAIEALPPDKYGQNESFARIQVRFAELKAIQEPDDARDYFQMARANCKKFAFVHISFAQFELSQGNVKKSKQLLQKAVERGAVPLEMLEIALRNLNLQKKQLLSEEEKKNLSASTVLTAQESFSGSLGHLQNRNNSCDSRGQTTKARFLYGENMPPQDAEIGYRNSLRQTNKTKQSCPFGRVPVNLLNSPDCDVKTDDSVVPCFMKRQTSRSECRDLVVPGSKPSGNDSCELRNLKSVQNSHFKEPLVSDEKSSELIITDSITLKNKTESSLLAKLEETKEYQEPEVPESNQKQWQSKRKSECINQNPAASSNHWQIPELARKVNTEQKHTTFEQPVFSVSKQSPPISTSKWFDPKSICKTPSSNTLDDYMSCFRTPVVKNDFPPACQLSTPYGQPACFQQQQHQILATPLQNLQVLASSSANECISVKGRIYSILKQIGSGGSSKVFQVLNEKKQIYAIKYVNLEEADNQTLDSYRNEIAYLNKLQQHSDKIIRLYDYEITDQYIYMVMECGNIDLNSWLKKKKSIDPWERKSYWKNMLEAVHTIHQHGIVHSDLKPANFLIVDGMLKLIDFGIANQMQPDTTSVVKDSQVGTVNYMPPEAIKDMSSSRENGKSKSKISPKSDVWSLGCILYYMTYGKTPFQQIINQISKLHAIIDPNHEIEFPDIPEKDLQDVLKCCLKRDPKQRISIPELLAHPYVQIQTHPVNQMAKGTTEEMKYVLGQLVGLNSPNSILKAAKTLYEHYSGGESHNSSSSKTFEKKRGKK

[3] = […]: N-terminally His6-tagged recombinant catalytic domain of human Bub1 (amino acids 704-1085), expressed in insect cells (Hi5) and purified by Ni-NTA affinity chromatography and subsequent size exclusion chromatography, was used as enzyme. As substrate for the kinase reaction the biotinylated peptide biotin-Ahx-VLLPKKSFAEPG (C-terminus in amid form) was used which can be purchased e.g. form the company Biosyntan (Berlin, Germany). For the assay 50 nl of a 100 fold concentrated solution of the test compound in DMSO was pipetted into a black low volume 384 well microtiter plate (Greiner Bio-One, Frickenhausen, Germany), 2 ul of a solution of Bub1 in aqueous assay buffer [50 mM Tris/HCl pH 7.5, 10 mM magnesium chloride (MgCl2), 200 mM potassium chloride (KCl), 1.0 mM dithiothreitol (DTT), 0.1 mM sodium ortho-vanadate, 1% (v/v) glycerol, 0.01% (w/v) bovine serum albumine (BSA), 0.005% (v/v) Trition X-100 (Sigma), 1x Complete EDTA-free protease inhibitor mixture (Roche)] were added and the mixture was incubated for 15 min at 22° C. to allow pre-binding of the test compounds to the enzyme before the start of the kinase reaction. […]

Mitotic checkpoint serine/threonine-protein kinase BUB1, sequence (O43683 whole entry, the tested form may be a part): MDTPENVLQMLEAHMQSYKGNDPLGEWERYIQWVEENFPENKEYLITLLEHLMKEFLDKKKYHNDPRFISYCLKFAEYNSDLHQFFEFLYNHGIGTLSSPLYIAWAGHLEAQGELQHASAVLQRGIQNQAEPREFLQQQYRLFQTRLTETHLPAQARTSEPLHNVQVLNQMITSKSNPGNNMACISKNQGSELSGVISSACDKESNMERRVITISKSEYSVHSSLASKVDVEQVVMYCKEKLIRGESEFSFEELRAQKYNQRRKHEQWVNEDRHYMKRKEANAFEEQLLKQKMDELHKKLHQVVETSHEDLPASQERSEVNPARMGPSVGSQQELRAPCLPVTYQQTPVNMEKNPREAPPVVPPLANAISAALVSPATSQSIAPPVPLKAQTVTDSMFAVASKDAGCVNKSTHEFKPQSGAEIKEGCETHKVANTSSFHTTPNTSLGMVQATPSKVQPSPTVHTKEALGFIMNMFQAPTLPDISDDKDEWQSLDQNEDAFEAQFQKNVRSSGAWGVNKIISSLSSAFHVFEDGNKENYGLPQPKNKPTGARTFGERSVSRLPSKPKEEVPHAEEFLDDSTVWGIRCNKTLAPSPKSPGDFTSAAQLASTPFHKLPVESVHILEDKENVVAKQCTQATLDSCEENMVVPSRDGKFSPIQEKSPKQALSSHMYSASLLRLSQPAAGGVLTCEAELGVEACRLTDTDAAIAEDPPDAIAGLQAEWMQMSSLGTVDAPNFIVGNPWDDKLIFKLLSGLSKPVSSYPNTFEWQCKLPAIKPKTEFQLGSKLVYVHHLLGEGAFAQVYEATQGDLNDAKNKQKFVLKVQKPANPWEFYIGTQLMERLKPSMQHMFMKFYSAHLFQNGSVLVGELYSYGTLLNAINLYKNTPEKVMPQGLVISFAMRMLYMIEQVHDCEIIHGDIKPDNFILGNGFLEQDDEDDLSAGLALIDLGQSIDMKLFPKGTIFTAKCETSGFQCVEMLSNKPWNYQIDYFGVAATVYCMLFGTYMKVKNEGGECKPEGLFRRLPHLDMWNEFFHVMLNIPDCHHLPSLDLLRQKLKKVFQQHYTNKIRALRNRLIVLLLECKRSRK

Compound | IC50 [1] [µM] | IC50 [2] [µM] | IC50 [3] [µM]
Cc1nsc(Nc2cncc(-n3cccn3)n2)c1C(=O)Nc1ccc(F)c(F)c1 | 15 | > 20 | –
Cc1nsc(Nc2cc(C#N)ccn2)c1C(=O)Nc1ccc(Oc2ccc(F)cc2F)nc1 | > 20 | > 20 | –
COc1ccc(Oc2ccc(CC(=O)c3c(C)nsc3Nc3cc(C#N)ccn3)cn2)cc1 | – | – | > 20
